Measurements published in PubChem BioAssay (NCI).
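Tested at 5 concentrations; 48 h exposure; 96-well plates; endpoints linearly interpolated, else capped at highest concentration. Definition used: TGI = concentration required for complete inhibition of growth.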

Experiments:
Experiment in all cases: growth of human tumour cells (NCI), 48 h
DLD-1 colon = test system: DLD-1 colon
K-562 leukemia = test system: K-562 leukemia
SK-MEL-28 melanoma = test system: SK-MEL-28 melanoma
HCT-15 colon = test system: HCT-15 colon
OVCAR-5 ovarian = test system: OVCAR-5 ovarian
XF 498 CNS = test system: XF 498 CNS
SK-OV-3 ovarian = test system: SK-OV-3 ovarian
KM12 colon = test system: KM12 colon
HCT-116 colon = test system: HCT-116 colon
UACC-62 melanoma = test system: UACC-62 melanoma
ACHN renal = test system: ACHN renal
NCI-H23 lung = test system: NCI-H23 lung
CCRF-CEM leukemia = test system: CCRF-CEM leukemia
HOP-92 NSCLC = test system: HOP-92 NSCLC
SK-MEL-5 melanoma = test system: SK-MEL-5 melanoma
SN12C renal = test system: SN12C renal
TK-10 renal = test system: TK-10 renal
SNB-19 CNS = test system: SNB-19 CNS
SF-295 CNS = test system: SF-295 CNS
HT29 colon = test system: HT29 colon
KM20L2 colon = test system: KM20L2 colon
UO-31 renal = test system: UO-31 renal
SW-620 colon = test system: SW-620 colon
CAKI-1 renal = test system: CAKI-1 renal
HOP-18 NSCLC = test system: HOP-18 NSCLC
LOX IMVI melanoma = test system: LOX IMVI melanoma
HOP-62 NSCLC = test system: HOP-62 NSCLC
RXF 393 renal = test system: RXF 393 renal
NCI-H226 lung = test system: NCI-H226 lung
U251 CNS = test system: U251 CNS
OVCAR-8 ovarian = test system: OVCAR-8 ovarian
COLO 205 colon = test system: COLO 205 colon
SK-MEL-2 melanoma = test system: SK-MEL-2 melanoma
RPMI-8226 leukemia = test system: RPMI-8226 leukemia
SNB-75 CNS = test system: SNB-75 CNS
SR leukemia = test system: SR leukemia
HL-60(TB) leukemia = test system: HL-60(TB) leukemia
LXFL 529 NSCLC = test system: LXFL 529 NSCLC
DMS 114 small cell lung = test system: DMS 114 small cell lung
A549 NSCLC = test system: A549 NSCLC
MOLT-4 leukemia = test system: MOLT-4 leukemia
MALME-3M melanoma = test system: MALME-3M melanoma
M14 melanoma = test system: M14 melanoma
DMS 273 small cell lung = test system: DMS 273 small cell lung
SNB-78 CNS = test system: SNB-78 CNS
SF-539 CNS = test system: SF-539 CNS
HCC-2998 colon = test system: HCC-2998 colon
NCI-H522 lung = test system: NCI-H522 lung
EKVX NSCLC = test system: EKVX NSCLC
OVCAR-3 ovarian = test system: OVCAR-3 ovarian
M19-MEL melanoma = test system: M19-MEL melanoma
IGROV1 ovarian = test system: IGROV1 ovarian
NCI-H460 lung = test system: NCI-H460 lung
786-0 renal = test system: 786-0 renal
OVCAR-4 ovarian = test system: OVCAR-4 ovarian
UACC-257 melanoma = test system: UACC-257 melanoma
SF-268 CNS = test system: SF-268 CNS
A498 renal = test system: A498 renal

C=C(N=[N+]=[N-])c1cn(C2CC(O)C(CO)O2)c(=O)[nH]c1=O (stereo not given)
TGI (DLD-1 colon): > 100 µM
TGI (K-562 leukemia): > 100 µM
TGI (SK-MEL-28 melanoma): > 100 µM
TGI (HCT-15 colon): > 100 µM
TGI (OVCAR-5 ovarian): > 100 µM
TGI (XF 498 CNS): > 100 µM
TGI (SK-OV-3 ovarian): > 100 µM
TGI (KM12 colon): > 100 µM
TGI (HCT-116 colon): > 100 µM
TGI (UACC-62 melanoma): > 100 µM
TGI (ACHN renal): > 100 µM
TGI (NCI-H23 lung): > 100 µM
TGI (CCRF-CEM leukemia): > 100 µM
TGI (HOP-92 NSCLC): > 100 µM
TGI (SK-MEL-5 melanoma): > 100 µM
TGI (SN12C renal): > 100 µM
TGI (TK-10 renal): > 100 µM
TGI (SNB-19 CNS): > 100 µM
TGI (SF-295 CNS): > 100 µM
TGI (HT29 colon): > 100 µM
TGI (KM20L2 colon): > 100 µM
TGI (UO-31 renal): > 100 µM
TGI (SW-620 colon): > 100 µM
TGI (CAKI-1 renal): > 100 µM
TGI (HOP-18 NSCLC): > 100 µM
TGI (LOX IMVI melanoma): > 100 µM
TGI (HOP-62 NSCLC): > 100 µM
TGI (RXF 393 renal): > 100 µM
TGI (NCI-H226 lung): > 100 µM
TGI (U251 CNS): > 100 µM
TGI (OVCAR-8 ovarian): > 100 µM
TGI (COLO 205 colon): > 100 µM
TGI (SK-MEL-2 melanoma): > 100 µM
TGI (RPMI-8226 leukemia): > 100 µM
TGI (SNB-75 CNS): > 100 µM
TGI (SR leukemia): > 100 µM
TGI (HL-60(TB) leukemia): > 100 µM
TGI (LXFL 529 NSCLC): > 100 µM
TGI (DMS 114 small cell lung): > 100 µM
TGI (A549 NSCLC): > 100 µM
TGI (MOLT-4 leukemia): > 100 µM
TGI (MALME-3M melanoma): > 100 µM
TGI (M14 melanoma): > 100 µM
TGI (DMS 273 small cell lung): > 100 µM
TGI (SNB-78 CNS): > 100 µM
TGI (SF-539 CNS): > 100 µM
TGI (HCC-2998 colon): > 100 µM
TGI (NCI-H522 lung): > 100 µM
TGI (EKVX NSCLC): > 100 µM
TGI (OVCAR-3 ovarian): > 100 µM
TGI (M19-MEL melanoma): > 100 µM
TGI (IGROV1 ovarian): > 100 µM
TGI (NCI-H460 lung): > 100 µM
TGI (786-0 renal): > 100 µM

C=CCc1ccc(O)c(-c2cc(C3Oc4c(-c5cc(CC=C)ccc5O)cc(O)cc4[C@@H]3CO)ccc2O)c1 (stereo not given in full)
TGI (DLD-1 colon): 38.6 µM
TGI (K-562 leukemia): 34.1 µM
TGI (OVCAR-4 ovarian): > 100 µM
TGI (SK-MEL-28 melanoma): 76.8 µM
TGI (HCT-15 colon): 29.3 µM
TGI (OVCAR-5 ovarian): > 100 µM
TGI (SK-OV-3 ovarian): > 100 µM
TGI (KM12 colon): 85.7 µM
TGI (HCT-116 colon): 43.3 µM
TGI (UACC-62 melanoma): 89.1 µM
TGI (ACHN renal): > 100 µM
TGI (NCI-H23 lung): 76.4 µM
TGI (CCRF-CEM leukemia): 43.7 µM
TGI (HOP-92 NSCLC): 64.9 µM
TGI (SK-MEL-5 melanoma): 65 µM
TGI (SN12C renal): > 100 µM
TGI (TK-10 renal): > 100 µM
TGI (SNB-19 CNS): 78.7 µM
TGI (SF-295 CNS): > 100 µM
TGI (HT29 colon): 79.3 µM
TGI (KM20L2 colon): 60.3 µM
TGI (UO-31 renal): > 100 µM
TGI (SW-620 colon): 31.1 µM
TGI (CAKI-1 renal): > 100 µM
TGI (HOP-18 NSCLC): > 100 µM
TGI (LOX IMVI melanoma): 32.3 µM
TGI (HOP-62 NSCLC): 75 µM
TGI (RXF 393 renal): 55.8 µM
TGI (NCI-H226 lung): > 100 µM
TGI (U251 CNS): 68.7 µM
TGI (OVCAR-8 ovarian): > 100 µM
TGI (COLO 205 colon): > 100 µM
TGI (SK-MEL-2 melanoma): 45.9 µM
TGI (RPMI-8226 leukemia): 65.6 µM
TGI (UACC-257 melanoma): > 100 µM
TGI (SNB-75 CNS): > 100 µM
TGI (SR leukemia): 47.7 µM
TGI (HL-60(TB) leukemia): 38.5 µM
TGI (SF-268 CNS): 82.5 µM
TGI (LXFL 529 NSCLC): 52.5 µM
TGI (DMS 114 small cell lung): 28.1 µM
TGI (A549 NSCLC): > 100 µM
TGI (MALME-3M melanoma): > 100 µM
TGI (M14 melanoma): > 100 µM
TGI (DMS 273 small cell lung): 44.5 µM
TGI (A498 renal): 61.5 µM
TGI (SNB-78 CNS): > 100 µM
TGI (SF-539 CNS): 56.3 µM
TGI (HCC-2998 colon): 68.7 µM
TGI (NCI-H522 lung): 38.7 µM
TGI (EKVX NSCLC): > 100 µM
TGI (OVCAR-3 ovarian): 74.5 µM
TGI (M19-MEL melanoma): > 100 µM
TGI (IGROV1 ovarian): 51.6 µM
TGI (NCI-H460 lung): > 100 µM
TGI (786-0 renal): > 100 µM
